Experiment [1] addresses T1, Coagulation factor XIII A chain (Homo sapiens, UniProt P00488).
T1 sequence (P00488 whole entry): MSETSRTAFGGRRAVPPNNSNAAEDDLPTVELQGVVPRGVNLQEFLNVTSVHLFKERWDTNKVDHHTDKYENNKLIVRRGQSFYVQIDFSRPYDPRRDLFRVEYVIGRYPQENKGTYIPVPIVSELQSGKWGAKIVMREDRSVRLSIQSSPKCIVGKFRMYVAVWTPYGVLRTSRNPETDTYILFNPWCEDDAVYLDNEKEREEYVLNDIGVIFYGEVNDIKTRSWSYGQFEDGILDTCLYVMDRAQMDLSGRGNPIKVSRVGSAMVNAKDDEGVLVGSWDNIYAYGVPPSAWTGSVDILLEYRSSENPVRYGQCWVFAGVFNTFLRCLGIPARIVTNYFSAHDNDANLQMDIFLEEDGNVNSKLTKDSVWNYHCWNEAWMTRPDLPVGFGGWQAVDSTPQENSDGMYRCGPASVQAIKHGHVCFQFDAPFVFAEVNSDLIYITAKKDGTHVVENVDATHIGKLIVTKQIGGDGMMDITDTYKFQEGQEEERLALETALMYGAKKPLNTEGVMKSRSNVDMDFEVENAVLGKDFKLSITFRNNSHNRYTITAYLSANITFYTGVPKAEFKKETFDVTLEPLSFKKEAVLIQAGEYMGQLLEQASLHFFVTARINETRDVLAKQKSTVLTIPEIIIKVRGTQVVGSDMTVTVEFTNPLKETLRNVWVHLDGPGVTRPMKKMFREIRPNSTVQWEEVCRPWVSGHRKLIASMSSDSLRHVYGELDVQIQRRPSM
The experiment is described as follows: Inhibition of coagulation factor 13a.

The target of experiment [2] is T2, Protein-glutamine gamma-glutamyltransferase 6 (Homo sapiens, UniProt O95932).
T2 sequence (O95932 whole entry): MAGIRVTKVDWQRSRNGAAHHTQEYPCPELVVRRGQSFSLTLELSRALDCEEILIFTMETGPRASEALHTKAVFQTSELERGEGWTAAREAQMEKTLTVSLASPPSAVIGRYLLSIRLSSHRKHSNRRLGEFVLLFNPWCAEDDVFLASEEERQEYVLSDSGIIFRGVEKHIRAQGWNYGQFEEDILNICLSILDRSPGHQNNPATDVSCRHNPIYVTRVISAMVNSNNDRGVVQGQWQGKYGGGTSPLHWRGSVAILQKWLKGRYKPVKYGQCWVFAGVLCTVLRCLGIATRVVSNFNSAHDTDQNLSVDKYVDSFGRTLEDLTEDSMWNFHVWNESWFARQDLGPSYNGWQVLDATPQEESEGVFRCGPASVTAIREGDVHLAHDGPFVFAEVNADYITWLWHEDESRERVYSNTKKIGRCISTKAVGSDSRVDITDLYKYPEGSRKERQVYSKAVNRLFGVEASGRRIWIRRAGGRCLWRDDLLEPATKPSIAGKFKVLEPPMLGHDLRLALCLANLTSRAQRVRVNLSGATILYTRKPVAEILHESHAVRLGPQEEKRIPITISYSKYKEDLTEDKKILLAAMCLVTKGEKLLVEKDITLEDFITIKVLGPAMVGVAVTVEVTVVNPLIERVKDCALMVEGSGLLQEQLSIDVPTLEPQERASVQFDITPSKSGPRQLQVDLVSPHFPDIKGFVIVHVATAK
The experiment can be described thus: Inhibition of transglutaminase 6.

Experiment [3] deals with T3, Protein-glutamine gamma-glutamyltransferase E (Homo sapiens, UniProt Q08188).
T3 sequence (Q08188 whole entry): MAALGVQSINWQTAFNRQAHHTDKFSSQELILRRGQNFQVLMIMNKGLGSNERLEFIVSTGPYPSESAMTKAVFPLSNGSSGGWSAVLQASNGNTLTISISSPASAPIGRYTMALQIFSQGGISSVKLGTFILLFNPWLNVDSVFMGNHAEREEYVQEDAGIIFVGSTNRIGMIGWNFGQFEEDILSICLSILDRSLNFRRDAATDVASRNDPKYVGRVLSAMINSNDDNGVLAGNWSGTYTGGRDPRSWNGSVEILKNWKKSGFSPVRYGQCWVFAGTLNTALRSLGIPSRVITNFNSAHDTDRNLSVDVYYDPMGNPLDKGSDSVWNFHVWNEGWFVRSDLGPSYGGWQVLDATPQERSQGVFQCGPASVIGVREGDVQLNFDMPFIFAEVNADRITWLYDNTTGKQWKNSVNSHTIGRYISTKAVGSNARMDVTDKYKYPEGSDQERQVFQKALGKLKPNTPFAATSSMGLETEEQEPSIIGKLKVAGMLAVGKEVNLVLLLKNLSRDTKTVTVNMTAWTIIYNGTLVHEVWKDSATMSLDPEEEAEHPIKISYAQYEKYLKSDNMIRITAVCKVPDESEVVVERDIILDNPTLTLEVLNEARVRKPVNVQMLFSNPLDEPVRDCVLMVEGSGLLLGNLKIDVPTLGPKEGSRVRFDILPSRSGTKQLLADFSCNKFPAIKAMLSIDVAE
The experiment is described as follows: Inhibition of transglutaminase 3.

Experiment [4] has as its target T4, Protein-glutamine gamma-glutamyltransferase (Homo sapiens, UniProt P21980).
T4 sequence (P21980 whole entry): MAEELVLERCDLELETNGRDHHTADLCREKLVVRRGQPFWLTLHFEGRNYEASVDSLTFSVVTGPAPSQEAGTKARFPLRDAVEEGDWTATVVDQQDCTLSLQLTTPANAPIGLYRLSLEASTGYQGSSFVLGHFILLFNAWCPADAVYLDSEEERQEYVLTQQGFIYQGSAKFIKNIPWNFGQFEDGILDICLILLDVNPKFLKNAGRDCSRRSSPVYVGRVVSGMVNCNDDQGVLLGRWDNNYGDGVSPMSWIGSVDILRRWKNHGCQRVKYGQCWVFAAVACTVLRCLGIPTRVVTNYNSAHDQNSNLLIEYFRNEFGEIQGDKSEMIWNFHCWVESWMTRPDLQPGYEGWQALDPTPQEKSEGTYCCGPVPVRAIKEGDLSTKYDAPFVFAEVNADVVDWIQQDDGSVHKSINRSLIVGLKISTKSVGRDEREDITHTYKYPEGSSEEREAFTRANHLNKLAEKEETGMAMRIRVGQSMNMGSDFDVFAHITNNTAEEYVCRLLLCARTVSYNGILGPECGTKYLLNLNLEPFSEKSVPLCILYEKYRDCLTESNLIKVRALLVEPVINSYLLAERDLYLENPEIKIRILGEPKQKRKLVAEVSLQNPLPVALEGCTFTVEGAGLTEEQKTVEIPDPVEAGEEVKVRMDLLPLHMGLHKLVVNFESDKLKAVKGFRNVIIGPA
The experiment is described as follows: Irreversible inhibition of transglutaminase 2.

Peptide text beside a SMILES is read from it. * marks the point of attachment. Cbz = O=C(OCc1ccccc1)*; Acryloyl = C=CC(=O)*; OtBu = CC(C)(C)O*

With `C=CC(=O)NCCCC[C@H](NC(=O)OCc1ccccc1)C(=O)NCC(=O)OC(C)(C)C` (Cbz-Lys(Acryloyl)-Gly-OtBu), the IC50 in experiment [1] is more than 80 µM; in experiment [2], more than 80 µM; in experiment [3], more than 80 µM; in experiment [4], 3.1 µM.
As to `C=CC(=O)NCCCC[C@H](NC(=O)Cc1ccccc1)C(=O)N1CCN(c2cccc(C)n2)CC1`, the IC50 was 35 µM in experiment [1], more than 80 µM in experiment [2], more than 80 µM in experiment [3] and 0.014 µM in experiment [4].
Consider `C=CC(=O)NCCCC[C@H](NC(=O)OCc1ccccc1)C(=O)N1CCN(c2ccccc2Cl)CC1`, for which the IC50 in experiment [1] was 67 µM; in experiment [2] it was 69 µM; in experiment [3], more than 80 µM; in experiment [4], 0.062 µM.

Usually IC50 stands for the concentration at which inhibition is half-maximal. Low readings indicate higher potency, high ones lower potency.

Source of the values: ChEMBL document CHEMBL2203174, “SAR Development of Lysine-Based Irreversible Inhibitors of Transglutaminase 2 for Huntington's Disease” (ACS Med Chem Lett, 2012).
